Source: PubChem BioAssay (NCI)
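How tested: cells in 96-well plates exposed to compound for 48 hours at five concentrations. TGI: concentration producing complete growth inhibition.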

Key:
Assay in all cases: growth of human tumour cells (NCI), 48 h
[1] = test system: SN12C renal
[2] = test system: SK-MEL-28 melanoma
[3] = test system: UO-31 renal
[4] = test system: MDA-MB-435
[5] = test system: RXF 393 renal
[6] = test system: BT-549 breast
[7] = test system: NCI-H460 lung
[8] = test system: MDA-N
[9] = test system: SNB-19 CNS
[10] = test system: ACHN renal
[11] = test system: IGROV1 ovarian

| Compound | TGI [1] | TGI [2] | TGI [3] | TGI [4] | TGI [5] | TGI [6] | TGI [7] | TGI [8] | TGI [9] | TGI [10] | TGI [11] |
| --- | --- | --- | --- | --- | --- | --- | --- | --- | --- | --- | --- |
| Cc1ccnc2c1C(=O)C1=C(OC(C)(C)CC1O)C2=O (stereo not drawn) | 12.4 µM | 5.16 µM | 11.3 µM | 2.73 µM | 23 µM | 12.7 µM | 8.97 µM | 2.9 µM | 21.1 µM | 22.9 µM | 11.3 µM |
| CC(=O)OC(CCC1(C)OC1COc1ccc(CCNC(=O)C=C(C)C)cc1)C(C)(C)OC(C)=O (stereo not drawn) | > 100 µM | > 100 µM | > 100 µM | 40.4 µM | > 31.6 µM | 25.4 µM | > 100 µM | 51.9 µM | > 100 µM | > 100 µM | > 100 µM |
| COc1cc2c(cc1O)NC(=O)[C@@H]1CCCN1C2=O | > 100 µM | > 100 µM | > 100 µM | > 100 µM | > 100 µM | > 100 µM | > 100 µM | > 100 µM | > 100 µM | > 100 µM | > 100 µM |
| O=P1(Cc2ccccc2)N(Cc2ccccc2)[C@@H]2CCCC[C@H]2N1Cc1ccccc1 | 23.2 µM | 33.2 µM | 19.7 µM | 19.8 µM | 26.9 µM | 33.8 µM | 25.8 µM | 19.8 µM | 24.2 µM | 25.5 µM | 19.4 µM |
| CCOC(=O)C(NC(=O)c1ccccc1)(N1CCN(c2cc3c(cc2F)c(=O)c(C(=O)O)cn3C2CC2)CC1)C(F)(F)F (stereo not drawn) | 79.3 µM | 74.6 µM | 63.3 µM | 45.2 µM | 36.5 µM | 50.9 µM | 44.6 µM | 46.8 µM | > 100 µM | 58.9 µM | 92.5 µM |
| Oc1c(Br)ccc2cccnc12 | > 100 µM | > 100 µM | 22.8 µM | > 100 µM | 32.4 µM | > 92.2 µM | 23.2 µM | > 100 µM | > 100 µM | 55.8 µM | 15.6 µM |
| O=C1/C(=C\c2cccc(Oc3ccccc3)c2)S(=O)(=O)C(c2ccccc2)N1c1cccc(Cl)c1 (stereo not drawn) | > 100 µM | > 100 µM | > 100 µM | > 100 µM | > 100 µM | > 100 µM | > 100 µM | > 100 µM | > 100 µM | > 100 µM | > 100 µM |
| CCCCCCCCCCCC(=O)OC[C@@H](C[As](=O)(O)O)OC(=O)CCCCCCCCCCC | 19.8 µM | 11.3 µM | 27.9 µM | 15 µM | 6.99 µM | 9.91 µM | 11.1 µM | 15 µM | 10.8 µM | 10.4 µM | 3.8 µM |
